# Measured values taken from ChEMBL document CHEMBL4007390, “Design, synthesis and biological evaluation of indolin-2-one-based derivatives as potent, selective and efficacious inhibitors of FMS-like tyrosine kinase3 (FLT3)” (Eur J Med Chem, 2017).
# How the values were obtained:
# [1] = molecular target: Vascular endothelial growth factor receptor 3 (Homo sapiens) (UniProt P35916); test: Inhibition of human VEGFR3 at 0.1 uM relative to control
# [2] = tested on: Platelet-derived growth factor receptor alpha (Homo sapiens), P16234 [D842V]; test: Inhibition of human PDGFRalpha D842V mutant at 0.1 uM relative to control
# [3] = tested on: Platelet-derived growth factor receptor alpha (Homo sapiens), P16234 [V561D]; test: Inhibition of human PDGFRalpha V561D mutant at 0.1 uM relative to control
# [4] = molecular target: Platelet-derived growth factor receptor beta (Homo sapiens) (UniProt P09619); test: Inhibition of human PDGFRbeta at 0.1 uM relative to control
# [5] = molecular target: Fibroblast growth factor receptor 1 (Homo sapiens) (UniProt P11362); test: Inhibition of human FGFR1 at 0.1 uM relative to control
# [6] = tested on: Mast/stem cell growth factor receptor Kit (Homo sapiens), P10721 [T670I]; test: Inhibition of human KIT T670I mutant at 0.1 uM relative to control
# [7] = molecular target: Hepatocyte growth factor receptor (Homo sapiens) (UniProt P08581); test: Inhibition of human c-MET at 0.1 uM relative to control
# [8] = molecular target: Proto-oncogene tyrosine-protein kinase receptor Ret (Homo sapiens) (UniProt P07949); test: Inhibition of human RET at 0.1 uM relative to control
# [9] = molecular target: Serine/threonine-protein kinase B-raf (Homo sapiens) (UniProt P15056); test: Inhibition of human BRAF at 0.1 uM relative to control
# [10] = molecular target: Serine/threonine-protein kinase PLK1 (Homo sapiens) (UniProt P53350); test: Inhibition of human PLK1 at 0.1 uM relative to control
# [11] = molecular target: Tyrosine-protein kinase ABL1 (Homo sapiens) (UniProt P00519); test: Inhibition of human ABL1 at 0.1 uM relative to control
# [12] = molecular target: ALK tyrosine kinase receptor (Homo sapiens) (UniProt Q9UM73); test: Inhibition of human ALK at 0.1 uM relative to control
# [13] = molecular target: Ephrin type-B receptor 4 (Homo sapiens) (UniProt P54760); test: Inhibition of human EPHB4 at 0.1 uM relative to control
# [14] = molecular target: Cyclin-dependent kinase 2 (Homo sapiens) (UniProt P24941); test: Inhibition of human CDK2 at 0.1 uM relative to control
# [15] = molecular target: AMPK alpha2/beta1/gamma1 (Homo sapiens) (UniProt P54646+P54619+Q9Y478); test: Inhibition of human AMPK alpha2/beta1/gamma1 at 0.1 uM relative to control; type: protein-complex assay
# [16] = molecular target: AMP-activated protein kinase (AMPK) alpha-1/beta-1/gamma-1 (Homo sapiens) (UniProt P54619+Q9Y478+Q13131); test: Inhibition of human AMPK alpha1/beta1/gamma1 at 0.1 uM relative to control; type: protein-complex assay
# [17] = molecular target: Insulin-like growth factor 1 receptor (Homo sapiens) (UniProt P08069); test: Inhibition of human IGF1R at 0.1 uM relative to control
# [18] = molecular target: Serine/threonine-protein kinase Nek6 (Homo sapiens) (UniProt Q9HC98); test: Inhibition of human NEK6 at 0.1 uM relative to control
# [19] = molecular target: Tyrosine-protein kinase SYK (Homo sapiens) (UniProt P43405); test: Inhibition of human SYK at 0.1 uM relative to control
# [20] = molecular target: Receptor-type tyrosine-protein kinase FLT3 (Homo sapiens, UniProt P36888); test: Inhibition of human FLT3
# [21] = Inhibition of human FLT3 ITD mutant
# [22] = molecular target: Platelet-derived growth factor receptor alpha (Homo sapiens, UniProt P16234); test: Inhibition of human PDGFRalpha
# [23] = molecular target: Mast/stem cell growth factor receptor Kit (Homo sapiens, UniProt P10721); test: Inhibition of human KIT
# HL-60 = test: Antiproliferative activity against FLT3 negative human HL60 cells after 72 hrs by MTS assay; type: functional, cell-based; conditions: HL-60, 72 h
# KG-1 = test: Antiproliferative activity against human KG1 cells harboring wild type FLT3 after 72 hrs by MTS assay; type: functional, cell-based; conditions: KG-1, 72 h
# LC-2-ad = test: Antiproliferative activity against human LC2/ad cells harboring RET after 72 hrs by MTS assay; type: functional, cell-based
# 786-0 = test: Antiproliferative activity against human 786-O cells harboring VHL after 72 hrs by MTS assay; type: functional, cell-based; conditions: 786-0, 72 h
# MDA-MB-231 = test: Antiproliferative activity against human MDA-MB-231 cells harboring K-Ras/B-Raf after 72 hrs by MTS assay; type: functional, cell-based; conditions: MDA-MB-231, 72 h
# HUVEC = test: Antiproliferative activity against HUVEC after 72 hrs by MTS assay; type: cell-based; conditions: Homo sapiens
# [24] = Oral bioavailability in Balb/c nude mouse at 40 mg/kg via gavage by LC-MS/MS analysis; type: ADME, organism-based; conditions: in vivo
# MV4-11 [25] = test: Antitumor activity against human MV4-11 cells xenografted in Harlan nude mouse assessed as tumor growth inhibition at 5 mg/kg, ig bid for 20 days relative to control; type: functional; conditions: MV4-11, po, 480 h, read-out: TGI
# MV4-11 [26] = test: Antitumor activity against human MV4-11 cells xenografted in Harlan nude mouse assessed as tumor growth inhibition at 40 mg/kg, ig bid for 20 days relative to control; type: functional; conditions: MV4-11, po, 480 h, read-out: TGI
# Mus musculus = test: Toxicity in Harlan nude mouse xenografted with human MV4-11 cells assessed as mouse death at 5 to 80 mg/kg, ig bid for 20 days; type: organism-based; conditions: in vivo, po, 480 h
# [27] = Toxicity in Harlan nude mouse xenografted with human MV4-11 cells administered ig bid for 20 days; conditions: in vivo, po
# Cytochrome P450 3A4 [28] = molecular target: T1, Cytochrome P450 3A4 (Homo sapiens, UniProt P08684); test: Inhibition of microsomal CYP3A4 (unknown origin) using midazolam as substrate preincubated for 5 mins followed by NADPH addition by LC-MS/MS analysis; type: ADME
# Cytochrome P450 3A4 [29] = molecular target: T1, Cytochrome P450 3A4; test: Inhibition of microsomal CYP3A4 (unknown origin) using testosterone as substrate preincubated for 5 mins followed by NADPH addition by LC-MS/MS analysis; type: ADME
# Cytochrome P450 2B6 = Cytochrome P450 2B6 (Homo sapiens, UniProt P20813); test: Inhibition of microsomal CYP2B6 (unknown origin) using bupropion as substrate preincubated for 5 mins followed by NADPH addition by LC-MS/MS analysis; type: ADME
# Cytochrome P450 2C9 = Cytochrome P450 2C9 (Homo sapiens, UniProt P11712); test: Inhibition of microsomal CYP2C9 (unknown origin) using diclofenac as substrate preincubated for 5 mins followed by NADPH addition by LC-MS/MS analysis; type: ADME
# Cytochrome P450 2C19 = Cytochrome P450 2C19 (Homo sapiens, UniProt P33261); test: Inhibition of microsomal CYP2C19 (unknown origin) using S-mephenytoin as substrate preincubated for 5 mins followed by NADPH addition by LC-MS/MS analysis; type: ADME
# Cytochrome P450 2D6 = Cytochrome P450 2D6 (Homo sapiens, UniProt P10635); test: Inhibition of microsomal CYP2D6 (unknown origin) using dextromethorphan as substrate preincubated for 5 mins followed by NADPH addition by LC-MS/MS analysis; type: ADME
# T1 sequence (P08684 whole entry): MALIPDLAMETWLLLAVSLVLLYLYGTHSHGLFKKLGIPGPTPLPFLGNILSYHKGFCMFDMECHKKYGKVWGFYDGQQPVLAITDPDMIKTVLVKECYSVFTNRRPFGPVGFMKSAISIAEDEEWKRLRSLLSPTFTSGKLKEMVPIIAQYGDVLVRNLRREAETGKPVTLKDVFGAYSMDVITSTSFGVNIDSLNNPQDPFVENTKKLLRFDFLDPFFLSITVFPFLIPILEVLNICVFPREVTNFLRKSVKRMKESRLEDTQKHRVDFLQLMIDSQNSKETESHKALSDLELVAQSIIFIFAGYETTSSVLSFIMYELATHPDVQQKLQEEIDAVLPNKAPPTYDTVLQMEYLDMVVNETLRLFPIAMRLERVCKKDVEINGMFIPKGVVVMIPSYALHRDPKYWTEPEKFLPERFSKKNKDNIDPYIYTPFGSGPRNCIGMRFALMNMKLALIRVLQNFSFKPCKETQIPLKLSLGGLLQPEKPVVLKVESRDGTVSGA
# Chain of Cytochrome P450 2B6 (P20813 whole entry): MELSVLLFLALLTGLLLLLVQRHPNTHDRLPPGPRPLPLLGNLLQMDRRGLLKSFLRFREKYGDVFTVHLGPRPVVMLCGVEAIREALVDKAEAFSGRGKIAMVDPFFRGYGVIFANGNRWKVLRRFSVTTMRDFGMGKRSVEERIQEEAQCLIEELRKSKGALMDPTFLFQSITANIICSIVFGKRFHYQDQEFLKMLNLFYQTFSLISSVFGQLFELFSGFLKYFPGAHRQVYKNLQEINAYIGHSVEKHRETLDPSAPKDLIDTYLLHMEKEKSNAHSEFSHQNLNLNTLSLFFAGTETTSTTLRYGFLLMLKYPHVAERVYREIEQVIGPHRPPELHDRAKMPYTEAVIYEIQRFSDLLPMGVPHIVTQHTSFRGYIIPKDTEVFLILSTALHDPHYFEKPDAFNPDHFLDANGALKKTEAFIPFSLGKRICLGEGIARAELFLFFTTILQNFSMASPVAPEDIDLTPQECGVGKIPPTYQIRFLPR
# Chain of Cytochrome P450 2C9 (P11712 whole entry): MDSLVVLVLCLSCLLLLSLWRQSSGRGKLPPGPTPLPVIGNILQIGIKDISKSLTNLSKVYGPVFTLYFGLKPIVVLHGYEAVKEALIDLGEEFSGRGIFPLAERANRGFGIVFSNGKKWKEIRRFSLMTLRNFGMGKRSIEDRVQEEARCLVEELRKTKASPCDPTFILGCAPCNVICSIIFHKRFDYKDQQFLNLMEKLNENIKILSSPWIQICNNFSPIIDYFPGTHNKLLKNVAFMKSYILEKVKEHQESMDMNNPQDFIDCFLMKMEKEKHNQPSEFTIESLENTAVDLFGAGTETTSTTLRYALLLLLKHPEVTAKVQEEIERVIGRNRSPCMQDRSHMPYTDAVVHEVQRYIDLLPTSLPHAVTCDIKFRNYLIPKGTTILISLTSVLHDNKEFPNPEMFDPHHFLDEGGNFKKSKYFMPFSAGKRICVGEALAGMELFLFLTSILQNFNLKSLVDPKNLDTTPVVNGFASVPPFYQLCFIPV
# Chain of AMPK alpha2/beta1/gamma1 (Homo sapiens) (P54619 whole entry partner): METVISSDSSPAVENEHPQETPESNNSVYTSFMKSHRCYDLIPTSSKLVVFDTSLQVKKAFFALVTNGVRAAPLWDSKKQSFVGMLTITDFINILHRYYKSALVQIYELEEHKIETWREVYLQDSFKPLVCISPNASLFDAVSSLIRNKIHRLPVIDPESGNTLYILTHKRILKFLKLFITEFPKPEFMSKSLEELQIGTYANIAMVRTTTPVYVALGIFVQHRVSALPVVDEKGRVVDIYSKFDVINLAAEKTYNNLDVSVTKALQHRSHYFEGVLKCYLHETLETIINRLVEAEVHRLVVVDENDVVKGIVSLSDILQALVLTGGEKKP
# Chain of AMPK alpha2/beta1/gamma1 (Homo sapiens) (P54646 whole entry): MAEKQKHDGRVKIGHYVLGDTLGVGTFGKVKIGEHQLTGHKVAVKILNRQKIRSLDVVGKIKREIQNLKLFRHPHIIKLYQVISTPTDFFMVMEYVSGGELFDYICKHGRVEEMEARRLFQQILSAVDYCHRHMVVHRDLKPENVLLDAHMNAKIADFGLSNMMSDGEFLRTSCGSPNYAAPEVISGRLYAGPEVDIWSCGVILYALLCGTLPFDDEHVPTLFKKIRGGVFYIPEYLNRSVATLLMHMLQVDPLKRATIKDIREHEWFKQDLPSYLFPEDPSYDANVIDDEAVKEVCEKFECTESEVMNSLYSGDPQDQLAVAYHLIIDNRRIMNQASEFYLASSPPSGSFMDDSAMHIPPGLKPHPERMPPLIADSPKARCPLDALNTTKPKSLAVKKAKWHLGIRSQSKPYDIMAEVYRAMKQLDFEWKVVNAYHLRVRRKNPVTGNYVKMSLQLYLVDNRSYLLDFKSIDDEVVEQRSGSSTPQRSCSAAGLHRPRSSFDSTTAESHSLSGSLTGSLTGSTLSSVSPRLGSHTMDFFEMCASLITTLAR
# Chain of AMPK alpha2/beta1/gamma1 (Homo sapiens) (Q9Y478 2-270 partner limits assumed): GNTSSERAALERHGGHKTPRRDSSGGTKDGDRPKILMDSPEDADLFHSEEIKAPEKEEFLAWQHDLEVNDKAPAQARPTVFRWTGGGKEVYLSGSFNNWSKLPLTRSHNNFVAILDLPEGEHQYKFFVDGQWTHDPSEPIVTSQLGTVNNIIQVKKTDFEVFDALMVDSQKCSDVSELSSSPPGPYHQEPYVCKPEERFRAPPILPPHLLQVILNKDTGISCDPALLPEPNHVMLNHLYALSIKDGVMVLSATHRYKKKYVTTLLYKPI
# Chain of AMP-activated protein kinase (AMPK) alpha-1/beta-1/gamma-1 (Homo sapiens) (P54619 whole entry): as the sequence (P54619 whole entry partner) above
# Chain of AMP-activated protein kinase (AMPK) alpha-1/beta-1/gamma-1 (Homo sapiens) (Q13131 whole entry partner): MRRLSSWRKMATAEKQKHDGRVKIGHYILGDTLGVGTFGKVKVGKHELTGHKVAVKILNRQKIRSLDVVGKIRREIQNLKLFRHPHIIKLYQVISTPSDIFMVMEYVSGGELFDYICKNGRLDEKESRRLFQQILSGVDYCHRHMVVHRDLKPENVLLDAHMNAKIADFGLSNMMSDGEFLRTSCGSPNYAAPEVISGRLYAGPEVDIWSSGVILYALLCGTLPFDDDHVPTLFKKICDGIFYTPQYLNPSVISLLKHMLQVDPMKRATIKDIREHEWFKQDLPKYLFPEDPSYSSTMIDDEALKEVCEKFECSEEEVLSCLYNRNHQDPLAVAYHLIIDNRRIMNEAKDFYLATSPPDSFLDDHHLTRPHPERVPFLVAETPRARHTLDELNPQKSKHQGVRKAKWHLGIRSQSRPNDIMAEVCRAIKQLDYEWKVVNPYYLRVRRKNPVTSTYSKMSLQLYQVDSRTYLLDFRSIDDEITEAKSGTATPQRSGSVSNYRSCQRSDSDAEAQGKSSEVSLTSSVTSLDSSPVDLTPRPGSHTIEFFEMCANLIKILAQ
# Chain of AMP-activated protein kinase (AMPK) alpha-1/beta-1/gamma-1 (Homo sapiens) (Q9Y478 2-270 partner limits assumed): as the sequence (Q9Y478 2-270 partner limits assumed) above
# Chain of Proto-oncogene tyrosine-protein kinase receptor Ret (Homo sapiens) (P07949 whole entry): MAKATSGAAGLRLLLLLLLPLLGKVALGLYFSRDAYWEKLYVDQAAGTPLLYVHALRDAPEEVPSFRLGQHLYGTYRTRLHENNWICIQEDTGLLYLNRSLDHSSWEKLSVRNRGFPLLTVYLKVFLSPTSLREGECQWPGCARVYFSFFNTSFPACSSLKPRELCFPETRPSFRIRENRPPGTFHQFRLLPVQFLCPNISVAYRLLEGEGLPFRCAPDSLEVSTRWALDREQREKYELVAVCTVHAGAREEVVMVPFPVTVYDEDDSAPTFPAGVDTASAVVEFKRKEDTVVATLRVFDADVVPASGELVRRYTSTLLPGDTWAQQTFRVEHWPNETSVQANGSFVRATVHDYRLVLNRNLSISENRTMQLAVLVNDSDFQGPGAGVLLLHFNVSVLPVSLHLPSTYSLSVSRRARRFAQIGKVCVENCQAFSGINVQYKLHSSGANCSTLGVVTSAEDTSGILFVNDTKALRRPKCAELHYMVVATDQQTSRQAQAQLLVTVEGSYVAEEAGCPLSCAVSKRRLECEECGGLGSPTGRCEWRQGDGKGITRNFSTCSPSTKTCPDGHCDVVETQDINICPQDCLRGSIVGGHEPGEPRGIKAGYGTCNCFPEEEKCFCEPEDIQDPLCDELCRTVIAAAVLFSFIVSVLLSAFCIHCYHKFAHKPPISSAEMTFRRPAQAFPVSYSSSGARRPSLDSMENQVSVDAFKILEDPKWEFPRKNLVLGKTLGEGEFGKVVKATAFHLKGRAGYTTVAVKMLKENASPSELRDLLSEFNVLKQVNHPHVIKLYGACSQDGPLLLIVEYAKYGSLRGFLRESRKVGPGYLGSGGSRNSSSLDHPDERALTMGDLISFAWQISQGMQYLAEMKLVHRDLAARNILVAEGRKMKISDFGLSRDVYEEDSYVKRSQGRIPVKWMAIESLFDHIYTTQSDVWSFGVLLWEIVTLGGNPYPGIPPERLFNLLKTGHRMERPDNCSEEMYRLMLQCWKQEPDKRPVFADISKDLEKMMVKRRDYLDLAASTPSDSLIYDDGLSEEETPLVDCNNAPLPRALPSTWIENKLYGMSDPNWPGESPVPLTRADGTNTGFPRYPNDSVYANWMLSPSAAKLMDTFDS
# Chain of Cytochrome P450 2C19 (P33261 whole entry): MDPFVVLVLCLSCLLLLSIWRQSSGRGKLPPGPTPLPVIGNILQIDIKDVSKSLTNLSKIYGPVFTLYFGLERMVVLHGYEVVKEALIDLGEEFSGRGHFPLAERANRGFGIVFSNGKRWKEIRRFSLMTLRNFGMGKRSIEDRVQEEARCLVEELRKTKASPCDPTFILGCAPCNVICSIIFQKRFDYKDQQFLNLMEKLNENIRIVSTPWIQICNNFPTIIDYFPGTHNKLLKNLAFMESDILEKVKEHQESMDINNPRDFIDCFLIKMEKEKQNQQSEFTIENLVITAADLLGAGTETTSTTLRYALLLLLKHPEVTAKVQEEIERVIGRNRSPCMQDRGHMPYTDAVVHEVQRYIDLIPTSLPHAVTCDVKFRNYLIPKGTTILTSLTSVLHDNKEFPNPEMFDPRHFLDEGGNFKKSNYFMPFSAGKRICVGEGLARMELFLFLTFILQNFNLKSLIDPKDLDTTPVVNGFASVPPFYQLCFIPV
smiles,measurement,setting,value
Cc1[nH]c(/C=C2\C(=O)Nc3ccc(F)cc32)c(C)c1NC(=O)[C@H]1CCCN1.Cl,inhibition,[1],47%
same,inhibition,[2],21%
same,inhibition,[3],82%
same,inhibition,[4],48%
same,inhibition,[5],27%
same,inhibition,[6],77%
same,inhibition,[7],-8%
same,inhibition,[8],88%
same,inhibition,[9],0%
same,inhibition,[10],-3%
same,inhibition,[11],20%
same,inhibition,[12],63%
same,inhibition,[13],-4%
same,inhibition,[14],8%
same,inhibition,[15],58%
same,inhibition,[16],38%
same,inhibition,[17],13%
same,inhibition,[18],8%
same,inhibition,[19],-3%
same,IC50,[20],0.0053 µM
same,IC50,[21],0.0007 µM
same,IC50,[22],0.175 µM
same,IC50,[23],0.227 µM
same,IC50,HL-60,6.47 µM
same,IC50,KG-1,24.5 µM
same,IC50,LC-2-ad,0.621 µM
same,IC50,786-0,12.2 µM
same,IC50,MDA-MB-231,> 20 µM
same,IC50,HUVEC,11.3 µM
same,bioavailability,[24],59%
same,inhibition in vivo at 5 mg/kg,MV4-11 [25],52.4%
same,inhibition in vivo at 40 mg/kg,MV4-11 [26],100%
same,Activity,Mus musculus,Non-Toxic
same,MTD at 480 h,[27],160 mg/kg/day
same,IC50,Cytochrome P450 3A4 [28],> 33 µM
same,IC50,Cytochrome P450 3A4 [29],> 33 µM
same,IC50,Cytochrome P450 2B6,> 33 µM
same,IC50,Cytochrome P450 2C9,> 33 µM
same,IC50,Cytochrome P450 2C19,> 33 µM
same,IC50,Cytochrome P450 2D6,> 33 µM
